In US8617563B2, “Antichlamydial agents” (Duke University, priority 2011, dated 2013):
“Also recorded” adds a separate entry of the source. Where no end group is shown, it is not given here.

What was measured:
CPAF [1] = target: T1, CPAF (Chlamydia trachomatis serovar D, UniProt O84866); format: cell-based, C. trachomatis; design: endogenous in cells; host or cells: HeLa cells infected with C. trachomatis LGV-L2 434/Bu (the bacteria make the protein and secrete it into the host cytosol); conditions: L2-infected HeLa cells, peptide at 12 hpi, harvested 30 hpi; 2-10 μM for vimentin
Procedure: Uninfected and HeLa cells pre-infected with L2 for 30 hrs were treated with inhibitory peptides and infected with EBs for 10 min Tarp translocation was indirectly visualized with an anti-phosphotyrosine antibody (A) and quantified by counting 50 separate cells (B). The stability of newly translocated Tarp was assessed by infecting cells as in (A) but with S^35-labeled EBs, followed by sequential immunoprecipitation of Tarp and MOMP and Phosphoimager analysis of precipitated material (C (I-IV)). […] IC50 values were determined by assessing CPAF cleavage of an Abz-tagged CPAF substrate (SEQ ID NO:9) by HPLC. Assays were performed the presence of increasing amount of inhibitors. […] Extracellular bacteria were determined. […] The number of internalized EBs was quantified per cell (H). […]
Rabbits were immunized with recombinant GST fusions to Ct005, IncC, IncD, Tarp, and hexa-histidine-tagged CPAF produced in E. coli BL-21 (available from Stratagene) and purified by affinity chromatography. […] To assess CPAF cleavage of membrane proteins and EB proteins, purified membranes and soluble EB protein lysate were incubated with 6× his-CPAF at 37° C., and resulting product analyzed by immunoblot. […]
To establish if CPAF was inhibited by SEQ ID NO:7 during infection, vimentin cleavage was assessed in C. trachomatis LGV-L2 434-infected HeLa cells after treatment with a range of concentrations (2-10 μM).
Target sequence in this assay (O84866 276-601): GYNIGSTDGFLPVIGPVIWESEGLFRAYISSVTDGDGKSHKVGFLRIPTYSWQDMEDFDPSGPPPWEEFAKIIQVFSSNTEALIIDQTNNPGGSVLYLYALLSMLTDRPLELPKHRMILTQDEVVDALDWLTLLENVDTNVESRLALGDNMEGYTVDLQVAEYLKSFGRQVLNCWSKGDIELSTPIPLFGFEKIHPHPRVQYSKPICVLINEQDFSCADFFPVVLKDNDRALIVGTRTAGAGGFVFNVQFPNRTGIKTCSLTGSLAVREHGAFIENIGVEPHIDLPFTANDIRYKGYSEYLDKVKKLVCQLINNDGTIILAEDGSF
Target sequence in this assay (O84866 24-234): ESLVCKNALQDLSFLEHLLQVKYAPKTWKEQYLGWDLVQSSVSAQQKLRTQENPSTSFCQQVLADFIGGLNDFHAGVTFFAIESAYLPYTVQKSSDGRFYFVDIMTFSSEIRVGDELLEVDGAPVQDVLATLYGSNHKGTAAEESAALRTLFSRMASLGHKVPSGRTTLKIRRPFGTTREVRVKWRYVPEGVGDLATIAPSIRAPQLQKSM

CPAF [2] = target: T1, CPAF; assay: FRET-based CPAF inhibition assay with model substrate SEQ ID NO:10; format: biochemical, C. trachomatis; design: 6xHis; made in house; host or cells: E. coli BL21 (DE3), plasmid pET30b-CPAF
Procedure: FRET-based assays comprised an Abz-tagged model CPAF substrate with an additional C-terminal 3-nitrotyrosine quencher:
The 3-nitrotyrosine moiety quenches Abz fluorescence until substrate cleavage occurs. FRET-based assays were performed in optical plates in a final volume of 100 μL containing 150 mM NaCl, 50 mM Tris pH 7.50, purified CPAF (62.5 nM), varying concentrations of model CPAF substrate (0.5 mM), and varying concentrations of each candidate compound (0-240 μM). IC50 values were determined by pre-incubating CPAF with varying concentrations of candidate compound for 5 min at room temperature prior to initiation of the reaction via the addition of model CPAF substrate. Reactions were initiated and read continuously at 420 nm for 10 minutes using a fluorescence microplate reader. The percentage of substrate converted was calculated using initial velocity over the first 90 seconds and converting RFU to concentration based on a standard curve with Abz followed by analysis in Graffit 6.0 using the equation of Example 8.
Target sequence in this assay (O84866 276-601): as the sequence (O84866 276-601) above
Target sequence in this assay (O84866 1-234, added parts left off): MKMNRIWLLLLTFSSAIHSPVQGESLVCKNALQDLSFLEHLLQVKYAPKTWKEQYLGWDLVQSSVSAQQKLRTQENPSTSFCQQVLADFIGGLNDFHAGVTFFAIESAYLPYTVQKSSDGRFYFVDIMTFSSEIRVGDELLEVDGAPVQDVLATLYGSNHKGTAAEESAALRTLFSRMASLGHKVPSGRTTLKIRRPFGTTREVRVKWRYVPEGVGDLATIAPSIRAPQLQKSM

SLFYSPMVPHFWAELRNHYATSGLKRRRRRRRRR-NH2 [SEQ ID NO:7]
Inhibition of CPAF-mediated cleavage of vimentin and Puma in infected cells (CPAF [1]): markedly inhibited; also recorded: loss of vimentin processing; also recorded: Vimentin and Puma cleavage was inhibited
IC50 (CPAF [2]): 0.03 ± 0.006 µM
